Earlier results on 2 molecules are cited in patent EP0200541B1, “Immunochemical method and analytical composition and element for determination of creatine kinase-MB” (EASTMAN KODAK COMPANY (a New Jersey corporation), priority 1985, dated 1986).

The subject of one series is total AK. The settings on record: AMP:ADP molar ratio of 10:1.
For another series, the target named is T1, erythrocyte AK (Homo sapiens, UniProt P00568).
T1 sequence (P00568 1-194): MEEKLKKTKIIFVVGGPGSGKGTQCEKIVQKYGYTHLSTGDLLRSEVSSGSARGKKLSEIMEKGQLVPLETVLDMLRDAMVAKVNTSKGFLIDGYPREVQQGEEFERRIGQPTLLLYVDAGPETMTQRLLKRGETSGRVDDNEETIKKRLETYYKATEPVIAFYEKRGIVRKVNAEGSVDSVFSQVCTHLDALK
The settings on record: 0.01 millimolar DAPP.

For the next series, the target named is CK-MB (Homo sapiens, UniProt P06732+P12277). The settings on record: 0.5-1 millimolar DAPP.
Chain of CK-MB (P06732 whole entry): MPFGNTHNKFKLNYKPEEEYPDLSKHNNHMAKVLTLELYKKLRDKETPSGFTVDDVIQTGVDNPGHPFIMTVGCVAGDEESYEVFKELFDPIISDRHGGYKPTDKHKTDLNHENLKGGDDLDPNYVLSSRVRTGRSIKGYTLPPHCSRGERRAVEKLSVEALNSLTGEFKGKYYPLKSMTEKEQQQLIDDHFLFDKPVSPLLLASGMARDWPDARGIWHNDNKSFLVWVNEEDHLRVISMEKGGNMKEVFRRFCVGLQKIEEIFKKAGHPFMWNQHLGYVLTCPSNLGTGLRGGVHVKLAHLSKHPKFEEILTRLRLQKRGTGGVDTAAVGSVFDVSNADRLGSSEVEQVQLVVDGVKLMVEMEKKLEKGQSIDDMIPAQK
Chain of CK-MB (P12277 whole entry): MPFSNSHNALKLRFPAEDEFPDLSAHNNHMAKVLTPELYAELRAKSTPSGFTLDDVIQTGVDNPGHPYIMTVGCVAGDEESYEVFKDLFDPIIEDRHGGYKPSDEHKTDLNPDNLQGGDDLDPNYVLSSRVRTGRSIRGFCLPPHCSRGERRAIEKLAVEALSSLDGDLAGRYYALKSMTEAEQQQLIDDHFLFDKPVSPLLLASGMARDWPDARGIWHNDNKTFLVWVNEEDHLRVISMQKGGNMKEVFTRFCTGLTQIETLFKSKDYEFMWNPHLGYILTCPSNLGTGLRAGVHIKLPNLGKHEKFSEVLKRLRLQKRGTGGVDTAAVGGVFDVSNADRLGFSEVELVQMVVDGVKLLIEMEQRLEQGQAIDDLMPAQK
A further series concerns the target T2, muscle AK (Homo sapiens, UniProt P00568).
T2 sequence (P00568 1-194): T1 sequence (P00568 1-194)
The following applies: 0.01 millimolar DAPP.

Another series has as its target liver AK (Homo sapiens, UniProt P54819).

SMILES strings stand for the structures.

`Nc1ncnc2c1ncn2[C@@H]1O[C@H](COP(=O)(O)O)[C@@H](O)[C@H]1O` [AMP, adenosine-5'-monophosphate]: the “total AK inhibited” value with total AK was 95%. Moreover, the “reduction of the activity of total CK” value with total CK (AMP:ADP molar ratio of 10:1) is 15-20%.
As to `Nc1ncnc2c1ncn2[C@@H]1O[C@H](COP(=O)(O)OP(=O)(O)OP(=O)(O)OP(=O)(O)OP(=O)(O)OC[C@H]2O[C@@H](n3cnc4c(N)ncnc43)[C@H](O)[C@@H]2O)[C@@H](O)[C@H]1O` [DAPP, P^1,P^5-di(adenosine-5')pentaphosphate], on erythrocyte AK, the “erythrocyte AK inhibited” value is listed as 97%. The “reduction of the activity of CK-MB” value at CK-MB is recorded as “at least 5%”. The “muscle AK inhibited” value on muscle AK was 97%. In addition, the “reduction in CK activity” value in the series on total CK (0.5-1 millimolar DAPP alone) is on record as 5%. Further, on liver AK (0.01 millimolar DAPP), the liver isoenzyme inhibited is 80%. For the same molecule, at liver AK (0.5-1 millimolar DAPP alone), the “activity of liver AK inhibited” value is recorded as “up to 97%”.
